≈ marks a conversion by molar mass, not a printed value.
How the values were obtained:
Plasmodium falciparum [1] = test: Antimalarial activity against chloroquine-sensitive Plasmodium falciparum D6 as [3H]hypoxanthine uptake; type: functional, organism-based
Plasmodium falciparum [2] = test: Antimalarial activity against chloroquine-resistant Plasmodium falciparum W2 as [3H]hypoxanthine uptake; type: functional, organism-based

COc1ccc2c(c1O)[C@H](Cc1ccc(O)cc1)NCC2
IC50 (Plasmodium falciparum [1]): 4.1 µg/mL (≈ 14.4 µM)
IC50 (Plasmodium falciparum [2]): 3.1 µg/mL (≈ 10.9 µM)

COc1ccc2c(c1O)[C@H](Cc1ccc(O)cc1)N(C)CC2
IC50 (Plasmodium falciparum [1]): 4.09 µg/mL (≈ 13.7 µM)
IC50 (Plasmodium falciparum [2]): 4.48 µg/mL (≈ 15 µM)

COc1cc2c(cc1OC)-c1c(OC)c(OC)c(OC)c3c1[C@H](C2)NCC3
IC50 (Plasmodium falciparum [1]): 1.51 µg/mL (≈ 4.07 µM)
IC50 (Plasmodium falciparum [2]): 1.75 µg/mL (≈ 4.71 µM)

COc1cc2c(cc1O)C[C@H]1c3c(cc(OC)c(OC)c3-2)CCN1C
IC50 (Plasmodium falciparum [1]): 7.15 µg/mL (≈ 20.9 µM)
IC50 (Plasmodium falciparum [2]): 2.7 µg/mL (≈ 7.91 µM)

COc1ccc2c(c1O)-c1c(OC)c(OC)cc3c1[C@H](C2)NCC3
IC50 (Plasmodium falciparum [1]): 1.99 µg/mL (≈ 6.08 µM)
IC50 (Plasmodium falciparum [2]): 1.9 µg/mL (≈ 5.8 µM)

COc1cc2c(cc1O)[C@H](Cc1ccc(O)cc1)N(C)CC2
IC50 (Plasmodium falciparum [1]): 2.73 µg/mL (≈ 9.12 µM)
IC50 (Plasmodium falciparum [2]): 3.81 µg/mL (≈ 12.7 µM)

COc1cc2c(cc1OC)[C@]13CCN(C)[C@@H](C2)[C@@H]1CC(=O)C(OC)C3 (some centres not stated)
IC50 (Plasmodium falciparum [1]): 7.1 µg/mL (≈ 20.6 µM)
IC50 (Plasmodium falciparum [2]): 9.02 µg/mL (≈ 26.1 µM)

COc1ccc(C[C@H]2c3cc(O)c(OC)cc3CCN2C)cc1O [(S)-RETICULINE]
IC50 (Plasmodium falciparum [1]): 5.8 µg/mL (≈ 17.6 µM)
IC50 (Plasmodium falciparum [2]): 3.65 µg/mL (≈ 11.1 µM)

C[C@@H]1CC[C@H]2[C@@H](C)C(=O)O[C@@H]3O[C@@]4(C)CC[C@@H]1[C@]32OO4 [ARTEMISININ]
IC50 (Plasmodium falciparum [1]): 0.0041 µg/mL (≈ 0.0145 µM)
IC50 (Plasmodium falciparum [2]): 0.0022 µg/mL (≈ 0.00779 µM)

COc1cc2c(cc1O)C[C@H]1c3c(cc(O)c(OC)c3-2)CCN1C [BOLDINE]
IC50 (Plasmodium falciparum [1]): 2.13 µg/mL (≈ 6.51 µM)
IC50 (Plasmodium falciparum [2]): 1.47 µg/mL (≈ 4.49 µM)

COc1cc2c(cc1O)[C@@H](Cc1ccc(Oc3cc(C[C@H]4NCCc5cc(OC)c(O)cc54)ccc3OC)cc1)NCC2 [COSTARICINE]
IC50 (Plasmodium falciparum [1]): 0.05 µg/mL (≈ 0.0858 µM)
IC50 (Plasmodium falciparum [2]): 0.294 µg/mL (≈ 0.505 µM)

COc1cc2c(cc1O)C[C@H]1c3c(cc(OC)c(O)c3-2)CCN1C [ISOBOLDINE]
IC50 (Plasmodium falciparum [1]): 0.668 µg/mL (≈ 2.04 µM)
IC50 (Plasmodium falciparum [2]): 0.904 µg/mL (≈ 2.76 µM)

COc1ccc2c(c1O)-c1c(OC)c(OC)cc3c1[C@H](C2)N(C)CC3 [ISOCORYDINE]
IC50 (Plasmodium falciparum [1]): 1.9 µg/mL (≈ 5.57 µM)
IC50 (Plasmodium falciparum [2]): 2.83 µg/mL (≈ 8.29 µM)

COc1cc2c(cc1O)C[C@@H]1NCCc3cc(OC)c(OC)c-2c31 [LAUROTETANINE]
IC50 (Plasmodium falciparum [1]): 3.9 µg/mL (≈ 11.9 µM)
IC50 (Plasmodium falciparum [2]): 2.53 µg/mL (≈ 7.73 µM)

COc1cc2c(cc1O)C[C@@H]1NCCc3cc(O)c(OC)c-2c31 [NORBOLDINE]
IC50 (Plasmodium falciparum [1]): 1.24 µg/mL (≈ 3.96 µM)
IC50 (Plasmodium falciparum [2]): 1.68 µg/mL (≈ 5.36 µM)

C=C[C@H]1CN2CC[C@H]1C[C@H]2[C@H](O)c1ccnc2ccc(OC)cc12 [QUININE]
IC50 (Plasmodium falciparum [1]): 0.0157 µg/mL (≈ 0.0484 µM)
IC50 (Plasmodium falciparum [2]): 0.0388 µg/mL (≈ 0.12 µM)

From ChEMBL document CHEMBL1158239, “Costaricine, a new antiplasmodial bisbenzylisoquinoline alkaloid from Nectandra salicifolia trunk bark” (J Nat Prod, 1996)
